Kd data for one compound are collected here from paper PMC10846223, “Substrate specificity and ecological significance of PstS homologs in phosphorus uptake in marine Synechococcus sp. WH8102” (Microbiology Spectrum, 2024).

The structures appear in SMILES notation.

Common to all, as to assay: biochemical
In test [1] the target is T1, PstS2 (Parasynechococcus marenigrum, UniProt Q7U3C5).
T1 construct: gene SYNW2507
T1 sequence (Q7U3C5 24-336): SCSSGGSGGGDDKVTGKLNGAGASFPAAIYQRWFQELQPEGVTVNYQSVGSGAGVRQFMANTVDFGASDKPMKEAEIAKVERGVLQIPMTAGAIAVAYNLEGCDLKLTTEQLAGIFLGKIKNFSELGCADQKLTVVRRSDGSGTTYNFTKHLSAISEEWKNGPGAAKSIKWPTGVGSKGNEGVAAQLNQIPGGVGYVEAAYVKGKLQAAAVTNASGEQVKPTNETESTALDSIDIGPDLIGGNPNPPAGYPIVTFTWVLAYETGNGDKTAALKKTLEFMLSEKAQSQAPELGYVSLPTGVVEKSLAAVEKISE

Test [2] addresses T2, PstS1b (Parasynechococcus marenigrum, UniProt Q7U592).
T2 construct: gene SYNW1815
T2 sequence (Q7U592 26-325): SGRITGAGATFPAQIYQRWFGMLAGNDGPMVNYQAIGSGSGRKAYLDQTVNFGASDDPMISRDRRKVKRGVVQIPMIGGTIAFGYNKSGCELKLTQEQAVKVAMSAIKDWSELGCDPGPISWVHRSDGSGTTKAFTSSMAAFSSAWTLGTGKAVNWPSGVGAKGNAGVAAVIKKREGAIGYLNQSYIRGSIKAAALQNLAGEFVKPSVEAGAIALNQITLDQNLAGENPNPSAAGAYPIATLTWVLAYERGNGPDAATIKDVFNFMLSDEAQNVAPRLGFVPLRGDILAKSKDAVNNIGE

Test [3] has as its target T3, PstS1a (Parasynechococcus marenigrum, UniProt Q7U7G6).
T3 construct: gene SYNW1018
T3 sequence (Q7U7G6 25-324): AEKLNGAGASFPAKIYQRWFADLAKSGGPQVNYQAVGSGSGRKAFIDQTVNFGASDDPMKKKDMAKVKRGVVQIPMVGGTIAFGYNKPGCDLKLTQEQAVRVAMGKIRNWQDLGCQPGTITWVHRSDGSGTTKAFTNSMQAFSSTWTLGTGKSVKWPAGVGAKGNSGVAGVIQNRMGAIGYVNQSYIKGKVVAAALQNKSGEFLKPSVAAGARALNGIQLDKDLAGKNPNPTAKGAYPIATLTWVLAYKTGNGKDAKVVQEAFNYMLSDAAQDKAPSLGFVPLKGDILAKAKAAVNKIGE

Usually Kd stands for a measure of binding affinity in units of concentration. Higher therefore signals weaker binding. As for `O=P(O)(O)O` [phosphate], the Kd in test [1] came to 4.3 µM; in test [2], 440 nM; in test [3], 3.3 µM.
